Patent US9304125B2, “Devices and methods for observing the cell division” (CENTRE NATIONAL DE LA RECHERCHE SCIENTIFIQUE, priority 2009, dated 2016)
“Also recorded” adds a separate entry of the source.

System: cytokinetic ring
Assay: Cytokinetic ring closure of fission yeast in egg-cup wells, observed by fluorescence microscopy (rlc1-mCherry)
Format: cell-based, Schizosaccharomyces pombe
Settings: latrunculin A 2 μM; FIG. 5B
Method: Here, they illustrate results with the myosin light chain encoded by rcl1 gene fused to mCherry.
The inventors incubated the cells with latrunculin A (2 μM), a drug known to bind monomeric actin and therefore preventing its polymerisation (Ayscough, 1998).
Standard methods were used for cell growth (Moreno et al., 1991). Briefly, cells were growing exponentially in EMM4S (Moreno et al., 1991), and experiments were conducted using the same medium in the chamber.
S. pombe strains successfully used in this study were the following: • JM 207 h+ rlc1 mcherry::natR ura- leu- ade-, J. Moseley • JW 1110 h+ kanMX6-Pmyo2-mYFP-myo2 ade6-M210 leu1-32 ura4-D18, J.-Q. Wu (Wu and Pollard, 2005) • PPG 5054, h+ leu1-32 ura4-D18 pax::KanMX6 leu1+::GFPpax+, Pilar Perez Lab (Pinar et al., 2008). • JW 977 h+ cdc15-mYFP-kanMX6 ade6-M210 leu1-32 ura4-D18, J.-Q. Wu (Wu and Pollard, 2005) • 519 h− bgs1Δ::ura4^+ Pbgs1^+::GFP-bgs1^+:leu1^+ leu1-32 ura4-Δ18 his3-Δ1, Pilar Perez (Cortes et al., 2002)
Cells were grown in exponential phase at 32° C. At about 0.5 optical density, the EMM4S medium was removed twice by centrifugation at 1000 g for 2 min followed by cells resuspension in a EMM-N medium (Moreno et al., 1991): cells were nitrogen starved at 32° C. for 5 hours. Cells were then pelleted with a 2 min centrifugation at 1000 g and they were resuspended in EMM4S. The egg cup surface (face up) was carefully placed on the top of a home-made plastic holder deposited in a 50 ml tube (adapted from the set-up used by (Allen et al., 2007)); 13 ml of EMM4S was poured in the tube. Cells were exposed to sonication 30 s (Branson 200, Ultrasonic Cleaner) to separate aggregated cells, and 1 ml of cell suspension was added to the 50 ml tube. Cells were then centrifuged at 500 g for 2 mn on the egg-cup surface resting on the special plastic holder. The egg cup surface was carefully removed from the holder and it was inserted in a home-made chamber (see FIG. 2D). The sample preparation was achieved by screwing a top metal piece onto the surface holder. […]

## C/C1=C/C(=O)O[C@@H]2C[C@@H](CC[C@H](C)/C=C\C=C\CC1)O[C@@](O)([C@@H]1CSC(=O)N1)C2 [latrunculin A]
  closure of the cytokinetic ring: the closure was stopped
  cytokinetic ring integrity: the ring disassembled, and this led to the clustering of myosin into discrete patches; also recorded: disrupts the ring
